Measured values reported in patent US20260118345A1, “METHOD OF EVALUATING INTERCELLULAR INTERACTIONS IN NEUROINFLAMMATION” (FUJIFILM Corporation, priority 2023, published 2026).

Columns and labels:
Type in all cases: cell-based, human
NF-κB [1] = test: NF-κB localization after LPS stimulation, three-cell-type co-culture containing about 0.11% microglia; settings: proportion of microglia about 0.11%
Method: The amount of cells required for the activated microglia to affect other cells was examined. Two-dimensional three-cell-type co-cultures of astrocytes, neurons, and microglia in which the proportion of the microglia was about 11%, 1.1%, and 0.11% were produced by the same method as in <1> of Test Example 1. In addition, the cells were subjected to LPS stimulation and fixed by the same method as in <1> of Test Example 1. Furthermore, the localization of NF-κB was evaluated by the same method as in <1> of Test Example 1.

[2] = test system: three-cell-type co-culture of neurons, astrocytes, and microglia; test: Neural activity by calcium imaging (BPM), two-dimensional three-cell-type co-culture of neurons, astrocytes and microglia; settings: 24 hours after stimulation (TNF-α 7.5 ng/mL or LPS 100 ng/mL)
Method: Matrigel basement membrane matrix (Corning, 356234) diluted 120-fold with DMEM/F12 (Life technologies, 11320-033) was added to a 96-well plate at 65 μL/well and allowed to stand at 4° C. After 24 hours, the culture medium was replaced with a progenitor cell culture medium and used. Astrocyte precursor cells (XCell Science, XCS-AP-001-1V) were seeded in a 96-well plate at a density of 6×10^4 cells/well, cultured under the conditions of 37° C. and 5% CO2, after culture medium was replaced with the differentiation induction culture medium, further cultured for 5 days to differentiate into astrocytes. […] After centrifugation, the supernatant was removed, the cells were suspended in 1 mL of the co-culture medium, and the number of cells was counted. […] After centrifugation, the supernatant was removed, the cells were suspended in 1 mL of the co-culture medium, and the number of cells was counted. […] In addition, at 24 hours after the stimulation with LPS or TNF-α, the neural activity was evaluated by calcium imaging. […] After incubating for 1 hour under conditions of 37° C. and 5% CO2, the solution was replaced with a warmed (37° C.) recording solution, and the fluorescence was measured for 10 minutes with FDSS (registered trademark)/μcell (Hamamatsu Photonics K. K., C13299). […]

NF-κB [3] = test: NF-κB localization after LPS stimulation, two-cell-type co-culture of nerve and astrocytes; settings: co-culture without microglia, all time points
[4] = test system: two-cell-type co-culture of neurons and astrocytes; test: Neural activity by calcium imaging (BPM), two-dimensional two-cell-type co-culture of neurons and astrocytes; settings: 24 hours after stimulation (TNF-α 7.5 ng/mL or LPS 100 ng/mL)
Method: Matrigel basement membrane matrix (Corning, 356234) diluted 120-fold with DMEM/F12 (Life technologies, 11320-033) was added to a 96-well plate at 65 μL/well and allowed to stand at 4° C. After 24 hours, the culture medium was replaced with a progenitor cell culture medium and used. Astrocyte precursor cells (XCell Science, XCS-AP-001-1V) were seeded in a 96-well plate at a density of 6×10^4 cells/well, cultured under the conditions of 37° C. and 5% CO2, after culture medium was replaced with the differentiation induction culture medium, further cultured for 5 days to differentiate into astrocytes. […] After centrifugation, the supernatant was removed, the cells were suspended in 1 mL of the co-culture medium, and the number of cells was counted. […] In addition, at 24 hours after the stimulation with LPS or TNF-α, the neural activity was evaluated by calcium imaging. […] After incubating for 1 hour under conditions of 37° C. and 5% CO2, the solution was replaced with a warmed (37° C.) recording solution, and the fluorescence was measured for 10 minutes with FDSS (registered trademark)/μcell (Hamamatsu Photonics K. K., C13299). The neural activity was evaluated by quantifying the number of peaks of calcium oscillation using Wave Checker Software (Hamamatsu Photonics K. K.).

With lipopolysaccharide [LPS] the “nuclear translocation of NF-κB” value (NF-κB [1]; 1 hour after the LPS treatment) was “only some cells”, the “nuclear translocation of NF-κB” value (NF-κB [1]; 3 hours and 6 hours after the LPS treatment) was “many cells” and the “BPM (the number of peaks of calcium oscillation per minute) as compared with the control” value [2] was “increase”. The “nuclear translocation of NF-κB” value (NF-κB [3]) was “not observed at any time” and the “BPM (the number of peaks of calcium oscillation per minute) as compared with the control” value [4] was “no change”.
